Read-outs that look alike come from different tables or passages of the source.
How the values were obtained:
[1] = target: human CB1 receptor (hCB1) (Homo sapiens, UniProt P21554); test: cell-based; assay type: cell-based
In short: (§1)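 First, cells in IBMX-containing HEPES-buffered HBSS are raised to elevated cAMP with 2-8 μM NKH-477 for 30 min. Data are normalised to the forskolin and forskolin + 1 μM CP55,940 controls.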

rat CB2 receptor (rCB2) = target: T1, rat CB2 receptor (rCB2) (Rattus norvegicus, UniProt Q9QZN9); test: cell-based; assay type: cell-based; conditions: for +/− RCB2: agonist or inverse agonist at rCB2
T1 sequence (Q9QZN9 1-360): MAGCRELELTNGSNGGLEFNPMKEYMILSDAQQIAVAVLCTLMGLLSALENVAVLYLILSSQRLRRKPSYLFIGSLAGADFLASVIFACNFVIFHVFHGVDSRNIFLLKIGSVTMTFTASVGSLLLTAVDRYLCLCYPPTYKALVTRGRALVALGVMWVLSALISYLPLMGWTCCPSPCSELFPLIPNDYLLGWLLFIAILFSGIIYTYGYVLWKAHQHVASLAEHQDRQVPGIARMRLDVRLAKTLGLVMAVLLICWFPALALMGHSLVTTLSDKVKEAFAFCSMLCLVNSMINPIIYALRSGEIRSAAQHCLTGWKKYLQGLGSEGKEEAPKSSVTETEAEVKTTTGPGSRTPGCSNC
In short: as §1

Sequence of human CB1 receptor (hCB1) (P21554 whole entry): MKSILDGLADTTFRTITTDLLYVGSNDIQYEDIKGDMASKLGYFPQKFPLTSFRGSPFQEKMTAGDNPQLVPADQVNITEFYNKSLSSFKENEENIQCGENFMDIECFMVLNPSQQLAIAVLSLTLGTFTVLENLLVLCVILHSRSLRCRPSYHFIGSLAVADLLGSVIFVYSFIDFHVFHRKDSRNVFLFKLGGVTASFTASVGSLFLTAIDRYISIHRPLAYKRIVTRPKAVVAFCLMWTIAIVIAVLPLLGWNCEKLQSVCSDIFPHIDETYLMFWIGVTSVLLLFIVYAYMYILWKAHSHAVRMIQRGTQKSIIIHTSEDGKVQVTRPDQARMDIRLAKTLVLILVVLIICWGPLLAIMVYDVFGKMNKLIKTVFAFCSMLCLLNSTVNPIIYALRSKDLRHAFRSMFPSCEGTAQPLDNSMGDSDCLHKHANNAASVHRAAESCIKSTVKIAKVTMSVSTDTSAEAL

## CN1CCn2c(-c3ccccc3)nc(C(=O)NCC(C)(C)CO)c2C1 [Compound 82, N-(3-hydroxy-2,2-dimethylpropyl)-7-methyl-3-phenyl-5,6,7,8-tetrahydroimidazo[1,5-a]pyrazine-1-carboxamide]
[1]; groups >100 nM-10 μM and >10 μM, cAMP, CHO-K1 hCB1, read-out: EC50 HCB1
  EC50: > 10000 nM
Rat CB2 receptor (rCB2); groups >100 nM-10 μM and >10 μM, cAMP, CHO-K1 rCB2, read-out: EC50 RCB2
  EC50: > 10000 nM

## CNC(=O)[C@@H](NC(=O)c1nc(-c2ccccc2)n2c1CN(C(C)C)CC2)C(C)(C)C [Compound 85, (S)-N-(3,3-dimethyl-1-(methylamino)-1-oxobutan-2-yl)-7-isopropyl-3-phenyl-5,6,7,8-tetrahydroimidazo[1,5-a]pyrazine-1-carboxamide]
[1]
  EC50: > 10000 nM
Rat CB2 receptor (rCB2)
  +/− RCB2: −

## COC(=O)[C@@H](NC(=O)c1nc(-c2ccccc2)n2c1CN(C)CC2)C(C)(C)C [Compound 86, (S)-methyl 3,3-dimethyl-2-(7-methyl-3-phenyl-5,6,7,8-tetrahydro-imidazo[1,5-a]pyrazine-1-carboxamido)butanoate]
[1]
  EC50: > 10000 nM
Rat CB2 receptor (rCB2)
  +/− RCB2: +

## Cc1noc([C@@H](NC(=O)c2nc(-c3ccccc3)n3c2CN(C)CC3)C(C)(C)C)n1 [Compound 87, (S)-N-(2,2-dimethyl-1-(3-methyl-1,2,4-oxadiazol-5-yl)propyl)-7-methyl-3-phenyl-5,6,7,8-tetrahydroimidazo[1,5-a]pyrazine-1-carboxamide]
[1]
  EC50: > 10000 nM
Rat CB2 receptor (rCB2)
  +/− RCB2: −

## Cc1noc([C@@H](NC(=O)c2nc(-c3ccccc3)n3c2CN(CC2CC2)CC3)C(C)(C)C)n1 [Compound 88, (S)-7-(cyclopropylmethyl)-N-(2,2-dimethyl-1-(3-methyl-1,2,4-oxadiazol-5-yl)propyl)-3-phenyl-5,6,7,8-tetrahydroimidazo[1,5-a]pyrazine-1-carboxamide]
[1]
  EC50: > 10000 nM
Rat CB2 receptor (rCB2)
  +/− RCB2: −

## Cc1noc([C@@H](NC(=O)c2nc(-c3ccccc3)n3c2CN(C(C)C)CC3)C(C)(C)C)n1 [Compound 89, (S)-N-(2,2-dimethyl-1-(3-methyl-1,2,4-oxadiazol-5-yl)propyl)-7-isopropyl-3-phenyl-5,6,7,8-tetrahydroimidazo[1,5-a]pyrazine-1-carboxamide]
[1]
  EC50: > 10000 nM
Rat CB2 receptor (rCB2)
  +/− RCB2: −

## Cc1noc([C@@H](NC(=O)c2nc(-c3ccccc3)n3c2CN(CC(C)C)CC3)C(C)(C)C)n1 [Compound 90, (S)-N-(2,2-dimethyl-1-(3-methyl-1,2,4-oxadiazol-5-yl)propyl)-7-isobutyl-3-phenyl-5,6,7,8-tetrahydroimidazo[1,5-a]pyrazine-1-carboxamide]
[1]
  EC50: > 10000 nM
Rat CB2 receptor (rCB2)
  +/− RCB2: −

## CNC(=O)[C@@H](NC(=O)c1nc(-c2ccccc2)n2c1CN(S(C)(=O)=O)CC2)C(C)(C)C [Compound 92, (S)-N-(3,3-dimethyl-1-(methylamino)-1-oxobutan-2-yl)-7-(methylsulfonyl)-3-phenyl-5,6,7,8-tetrahydroimidazo[1,5-a]pyrazine-1-carboxamide]
[1]
  EC50: > 10000 nM
Rat CB2 receptor (rCB2)
  +/− RCB2: −

## CNC(=O)[C@@H](NC(=O)c1nc(-c2ccccc2)n2c1CN(S(=O)(=O)c1ccc(F)cc1)CC2)C(C)(C)C [Compound 93, (S)-N-(3,3-dimethyl-1-(methylamino)-1-oxobutan-2-yl)-7-(4-fluorophenylsulfonyl)-3-phenyl-5,6,7,8-tetrahydroimidazo[1,5-a]pyrazine-1-carboxamide]
[1]
  EC50: > 10000 nM
Rat CB2 receptor (rCB2)
  +/− RCB2: −

## CNC(=O)[C@@H](NC(=O)c1nc(-c2ccccc2)n2c1CN(S(=O)(=O)C(C)C)CC2)C(C)(C)C [Compound 94, (S)-N-(3,3-dimethyl-1-(methylamino)-1-oxobutan-2-yl)-7-(isopropylsulfonyl)-3-phenyl-5,6,7,8-tetrahydroimidazo[1,5-a]pyrazine-1-carboxamide]
[1]
  EC50: > 10000 nM
Rat CB2 receptor (rCB2)
  +/− RCB2: −

## CNC(=O)[C@@H](NC(=O)c1nc(-c2ccccc2)n2c1CN(S(=O)(=O)CC(C)C)CC2)C(C)(C)C [Compound 95, (S)-N-(3,3-dimethyl-1-(methylamino)-1-oxobutan-2-yl)-7-(isobutylsulfonyl)-3-phenyl-5,6,7,8-tetrahydroimidazo[1,5-a]pyrazine-1-carboxamide]
[1]
  EC50: > 10000 nM
Rat CB2 receptor (rCB2)
  +/− RCB2: −

## CNC(=O)[C@@H](NC(=O)c1nc(-c2ccccc2)n2c1CN(S(=O)(=O)c1ccccc1)CC2)C(C)(C)C [Compound 96, (S)-N-(3,3-dimethyl-1-(methylamino)-1-oxobutan-2-yl)-3-phenyl-7-(phenylsulfonyl)-5,6,7,8-tetrahydroimidazo[1,5-a]pyrazine-1-carboxamide]
[1]
  EC50: > 10000 nM
Rat CB2 receptor (rCB2)
  +/− RCB2: −

## CNC(=O)[C@@H](NC(=O)c1nc(-c2ccccc2)n2c1CN(S(=O)(=O)c1ccccc1[N+](=O)[O-])CC2)C(C)(C)C [Compound 97, (S)-N-(3,3-dimethyl-1-(methylamino)-1-oxobutan-2-yl)-7-(2-nitrophenylsulfonyl)-3-phenyl-5,6,7,8-tetrahydroimidazo[1,5-a]pyrazine-1-carboxamide]
[1]
  EC50: > 10000 nM
Rat CB2 receptor (rCB2)
  +/− RCB2: −

## CNC(=O)[C@@H](NC(=O)c1nc(-c2ccccc2)n2c1CN(S(=O)(=O)c1ccccc1F)CC2)C(C)(C)C [Compound 98, (S)-N-(3,3-dimethyl-1-(methylamino)-1-oxobutan-2-yl)-7-(2-fluorophenylsulfonyl)-3-phenyl-5,6,7,8-tetrahydroimidazo[1,5-a]pyrazine-1-carboxamide]
[1]
  EC50: > 10000 nM
Rat CB2 receptor (rCB2)
  +/− RCB2: −

## CNC(=O)[C@@H](NC(=O)c1nc(-c2ccccc2)n2c1CN(S(=O)(=O)c1cccc(F)c1)CC2)C(C)(C)C [Compound 99, (S)-N-(3,3-dimethyl-1-(methylamino)-1-oxobutan-2-yl)-7-(3-fluorophenylsulfonyl)-3-phenyl-5,6,7,8-tetrahydroimidazo[1,5-a]pyrazine-1-carboxamide]
[1]
  EC50: > 10000 nM
Rat CB2 receptor (rCB2)
  +/− RCB2: −

## CNC(=O)[C@@H](NC(=O)c1nc(-c2ccccc2)n2c1CN(S(=O)(=O)C1CC1)CC2)C(C)(C)C [Compound 100, (S)-7-(cyclopropylsulfonyl)-N-(3,3-dimethyl-1-(methylamino)-1-oxobutan-2-yl)-3-phenyl-5,6,7,8-tetrahydroimidazo[1,5-a]pyrazine-1-carboxamide]
[1]
  EC50: > 10000 nM
Rat CB2 receptor (rCB2)
  +/− RCB2: −

## CC(C)(C)[C@@H](CO)NC(=O)c1nc(-c2ccccc2)n2c1CN(S(=O)(=O)c1ccc(F)cc1)CC2 [Compound 101, (S)-7-(4-fluorophenylsulfonyl)-N-(1-hydroxy-3,3-dimethylbutan-2-yl)-3-phenyl-5,6,7,8-tetrahydroimidazo[1,5-a]pyrazine-1-carboxamide]
[1]
  EC50: > 10000 nM
Rat CB2 receptor (rCB2)
  +/− RCB2: −

## CC(C)(C)[C@@H](CO)NC(=O)c1nc(-c2ccccc2)n2c1CN(S(=O)(=O)c1ccccc1)CC2 [Compound 102, (S)-N-(1-hydroxy-3,3-dimethylbutan-2-yl)-3-phenyl-7-(phenylsulfonyl)-5,6,7,8-tetrahydroimidazo[1,5-a]pyrazine-1-carboxamide]
[1]
  EC50: > 10000 nM
Rat CB2 receptor (rCB2)
  +/− RCB2: −

## CC(C)(C)CNC(=O)c1nc(-c2ccccc2)n2c1CN(S(=O)(=O)c1ccc(F)cc1)CC2 [Compound 103, 7-(4-fluorophenylsulfonyl)-N-neopentyl-3-phenyl-5,6,7,8-tetrahydroimidazo[1,5-a]pyrazine-1-carboxamide]
[1]
  EC50: > 10000 nM
Rat CB2 receptor (rCB2)
  +/− RCB2: −

## CC(C)(C)CNC(=O)c1nc(-c2ccccc2)n2c1CN(S(=O)(=O)c1ccccc1)CC2 [Compound 104, N-neopentyl-3-phenyl-7-(phenylsulfonyl)-5,6,7,8-tetrahydroimidazo[1,5-a]pyrazine-1-carboxamide]
[1]
  EC50: > 10000 nM
Rat CB2 receptor (rCB2)
  +/− RCB2: −
